# Source: US12692238B2, “Substituted pyridazinone herbicides” (FMC CORPORATION, priority 2020, dated 2026)
# Experiments:
# Format in all cases: in vivo
# [1] = system: barnyardgrass (Echinochloa crus-galli); assay: Test A preemergence, barnyardgrass; conditions: 10 days
# Method in brief: (§1)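 Pre: soil-directed spray on seeded loam/sand pots. Post: spray on 2–10 cm seedlings, 1–2 leaves. Surfactant-containing solvent vehicle. Greenhouse 10 d; visual % control vs untreated.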
# [2] = system: foxtail, green (green foxtail, Setaria viridis); assay: Test A preemergence, foxtail, green; conditions: 0 to 100 scale, 10 days
# Description: (§2) Seeds of plant species selected from barnyardgrass (Echinochloa crus-galli), blackgrass (Alopecurus myosuroides), corn (Zea mays), foxtail, giant (giant foxtail, Setaria faberi), foxtail, green (green foxtail, Setaria viridis), goosegrass (Eleusine indica), kochia (Bassia scoparia), oat, wild (wild oat, Avena fatua), palmer amaranth (pigweed, palmer, Amaranthus palmeri), redroot pigweed (Amaranthus retroflexus), ragweed (common ragweed, Ambrosia artemisiifolia), ryegrass, Italian (Italian ryegrass, Lolium multiflorum), and soybean (Glycine max) were planted into a blend of loam soil and sand and treated preemergence with a directed soil spray using test chemicals formulated in a non-phytotoxic solvent mixture which included a surfactant.
# (§3) At the same time, plants selected from these crop and weed species and also wheat (Triticum aestivum), galium (catchweed bedstraw, Galium aparine) and horseweed (Erigeron canadensis) were planted in pots containing the same blend of loam soil and sand and treated with postemergence applications of test chemicals formulated in the same manner. Plants ranged in height from 2 to 10 cm and were in the one- to two-leaf stage for the postemergence treatment. Treated plants and untreated controls were maintained in a greenhouse for 10 days, after which time all treated plants were compared to untreated controls and visually evaluated for injury. Plant response ratings, summarized in Table A, are based on a 0 to 100 scale where 0 is no effect and 100 is complete control. A dash (-) response means no test result.
# [3] = system: kochia (Bassia scoparia); assay: Test A preemergence, kochia; conditions: 0 to 100 scale, 10 days
# Method in brief: as §1
# [4] = system: redroot pigweed (Amaranthus retroflexus); assay: Test A preemergence, redroot pigweed; conditions: 0 to 100 scale, 10 days
# Method in brief: as §1
# [5] = system: ragweed (common ragweed, Ambrosia artemisiifolia); assay: Test A preemergence, ragweed; conditions: 0 to 100 scale, 10 days
# Method in brief: as §1
# [6] = system: ryegrass, Italian (Italian ryegrass, Lolium multiflorum); assay: Test A preemergence, ryegrass, Italian; conditions: 0 to 100 scale, 10 days
# Method in brief: as §1
# [7] = system: barnyardgrass (Echinochloa crus-galli); assay: Test A postemergence, barnyardgrass; conditions: 10 days
# Method in brief: as §1
# [8] = system: blackgrass (Alopecurus myosuroides); assay: Test A postemergence, blackgrass; conditions: 10 days
# Method in brief: as §1
# [9] = system: corn (Zea mays); assay: Test A postemergence, corn; conditions: 10 days
# Method in brief: as §1
# [10] = system: foxtail, green (green foxtail, Setaria viridis); assay: Test A postemergence, foxtail, green; conditions: 10 days
# Description: as §2, §3
# [11] = system: kochia (Bassia scoparia); assay: Test A postemergence, kochia; conditions: 10 days
# Method in brief: as §1
# [12] = system: redroot pigweed (Amaranthus retroflexus); assay: Test A postemergence, redroot pigweed; conditions: 10 days
# Method in brief: as §1
# [13] = system: ragweed (common ragweed, Ambrosia artemisiifolia); assay: Test A postemergence, ragweed; conditions: 10 days
# Method in brief: as §1
# [14] = system: ryegrass, Italian (Italian ryegrass, Lolium multiflorum); assay: Test A postemergence, ryegrass, Italian; conditions: 10 days
# Method in brief: as §1
# [15] = system: wheat (Triticum aestivum); assay: Test A postemergence, wheat; conditions: 10 days
# Method in brief: as §1
# [16] = system: galium (catchweed bedstraw, Galium aparine); assay: Test A postemergence, galium; conditions: 10 days
# Method in brief: as §1
# [17] = system: barnyardgrass (Echinochloa crus-galli); assay: Test B flooded paddy test, barnyardgrass; conditions: 250 g ai/ha, Flood; visually evaluated after 10 to 14 days
# Method in brief: (§4)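 Water-applied treatment of 2-leaf plants in pots kept flooded at 3 cm. Visual control rating (0–100) against untreated plants after 10–14 greenhouse days.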
# [18] = system: ducksalad (Heteranthera limosa); assay: Test B flooded paddy test, ducksalad; conditions: 250 g ai/ha, Flood; visually evaluated after 10 to 14 days
# Method in brief: as §4
# [19] = system: rice (Oryza sativa); assay: Test B flooded paddy test, rice; conditions: 250 g ai/ha, Flood; visually evaluated after 10 to 14 days
# Method in brief: as §4
# [20] = system: sedge, umbrella (small-flower umbrella sedge, Cyperus difformis); assay: Test B flooded paddy test, sedge, umbrella; conditions: 250 g ai/ha, Flood; visually evaluated after 10 to 14 days
# Method in brief: as §4
# [21] = 125 g ai/ha, 0 to 100 scale (0 no effect, 100 complete control)
# [22] = Postemergence, 31 g ai/ha, 0 to 100 scale
# [23] = Postemergence, 125 g ai/ha, 0 to 100 scale
# [24] = 31 g ai/ha, postemergence, 0 to 100 scale (0 no effect, 100 complete control)
Compound,"Plant response rating, Barnyardgrass ([1]; 31 g ai/ha, 0 to 100 scale)","Plant response rating, Barnyardgrass [1, 21]","Plant response rating, Foxtail, Green ([2]; 31 g ai/ha)","Plant response rating, Foxtail, Green ([2]; 125 g ai/ha)","Plant response rating, Kochia ([3]; 31 g ai/ha)","Plant response rating, Kochia ([3]; 125 g ai/ha)","Plant response rating, Pigweed, Redroot ([4]; 31 g ai/ha)","Plant response rating, Pigweed, Redroot ([4]; 125 g ai/ha)","Plant response rating, Ragweed ([5]; 31 g ai/ha)","Plant response rating, Ragweed ([5]; 125 g ai/ha)","Plant response rating, Ryegrass, Italian ([6]; 31 g ai/ha)","Plant response rating, Ryegrass, Italian ([6]; 125 g ai/ha)","Plant response rating, Barnyardgrass [7, 23]","Plant response rating, Blackgrass [8, 23]","Plant response rating, Corn [9, 23]","Plant response rating, Foxtail, Green [10, 24]","Plant response rating, Foxtail, Green [10, 23]","Plant response rating, Kochia [11, 24]","Plant response rating, Kochia [11, 23]","Plant response rating, Pigweed, Redroot [12, 24]",also measured
Cc1ccc2ccccc2c1-c1c(OCOC(=O)C(C)C)c(Cl)nn(C)c1=O [Compound 6],0,0,0,50,10,50,90,100,10,80,20,70,50,40,0,0,60,10,60,60,"Plant response rating, Barnyardgrass [7, 22]: 20; Plant response rating, Blackgrass [8, 22]: 0; Plant response rating, Corn [9, 22]: 0; Plant response rating, Pigweed, Redroot [12, 23]: 100; Plant response rating, Ragweed [13, 24]: 70; Plant response rating, Ragweed [13, 23]: 80; Plant response rating, Ryegrass, Italian [14, 24]: 50; Plant response rating, Ryegrass, Italian [14, 23]: 70; Plant response rating, Wheat [15, 24]: 0; Plant response rating, Wheat [15, 23]: 10; Plant response rating, Galium [16, 24]: 70; Plant response rating, Galium [16, 23]: 90; Plant response rating, Barnyardgrass (0 to 100 scale where 0 is no effect and 100 is complete control) [17]: 10; Plant response rating, Ducksalad (0 to 100 scale where 0 is no effect and 100 is complete control) [18]: 70; Plant response rating, Rice (0 to 100 scale where 0 is no effect and 100 is complete control) [19]: 0; Plant response rating, Sedge, Umbrella (0 to 100 scale where 0 is no effect and 100 is complete control) [20]: 75"
Cc1ccc2ccccc2c1-c1c(OCOC(=O)C(C)(C)C)c(Cl)nn(C)c1=O [Compound 7],50,90,60,100,10,70,100,100,50,90,50,90,80,30,10,10,70,30,70,80,"Plant response rating, Barnyardgrass [7, 22]: 10; Plant response rating, Blackgrass [8, 22]: 0; Plant response rating, Corn [9, 22]: 10; Plant response rating, Pigweed, Redroot [12, 23]: 90; Plant response rating, Ragweed [13, 24]: 70; Plant response rating, Ragweed [13, 23]: 90; Plant response rating, Ryegrass, Italian [14, 24]: 50; Plant response rating, Ryegrass, Italian [14, 23]: 70; Plant response rating, Wheat [15, 24]: 0; Plant response rating, Wheat [15, 23]: 50; Plant response rating, Galium [16, 24]: 70; Plant response rating, Galium [16, 23]: 90; Plant response rating, Barnyardgrass (0 to 100 scale where 0 is no effect and 100 is complete control) [17]: 0; Plant response rating, Ducksalad (0 to 100 scale where 0 is no effect and 100 is complete control) [18]: 0; Plant response rating, Rice (0 to 100 scale where 0 is no effect and 100 is complete control) [19]: 0; Plant response rating, Sedge, Umbrella (0 to 100 scale where 0 is no effect and 100 is complete control) [20]: 0"
Cc1cc(Cl)c2ccc(F)cc2c1-c1c(OCOC(=O)C(C)(C)C)c(C)nn(C)c1=O [Compound 30],0,80,20,100,20,20,80,100,80,90,100,100,50,80,10,30,80,10,30,80,"Plant response rating, Barnyardgrass [7, 24]: 20; Plant response rating, Blackgrass [8, 24]: 40; Plant response rating, Corn [9, 24]: 0; Plant response rating, Pigweed, Redroot [12, 23]: 90; Plant response rating, Ragweed [13, 24]: 20; Plant response rating, Ragweed [13, 23]: 100; Plant response rating, Ryegrass, Italian [14, 24]: 80; Plant response rating, Ryegrass, Italian [14, 23]: 100; Plant response rating, Wheat [15, 24]: 20; Plant response rating, Wheat [15, 23]: 60; Plant response rating, Galium [16, 24]: 100; Plant response rating, Galium [16, 23]: 100; Plant response rating, Barnyardgrass (0 to 100 scale where 0 is no effect and 100 is complete control) [17]: 40; Plant response rating, Ducksalad (0 to 100 scale where 0 is no effect and 100 is complete control) [18]: 75; Plant response rating, Rice (0 to 100 scale where 0 is no effect and 100 is complete control) [19]: 35; Plant response rating, Sedge, Umbrella (0 to 100 scale where 0 is no effect and 100 is complete control) [20]: 100"
